Experimental data from patent publication US9580414B2, “Salts and hydrates of antipsychotics” (SHASUN PHARMACEUTICALS LIMITED, priority 2012, dated 2017).
“And” between values parts separate entries of the source, which are not always exact repeats. Equal values may be shown once. Where a name gives a salt, the structure may show the parent alone. Read-outs that look alike come from different tables or passages of the source. One block for each compound: values may come before it.

Assays:
[1] = Comparative solubility study in McIlvaine Buffer pH 3.8; type: physicochemical
Experimental: The solubility study was performed for the dihydrochloride salt of the present invention using the McIlvaine Buffer pH 3.8.

[2] = Single dose oral pharmacokinetics comparative study of Lurasidone monohydrochloride v. dihydrochloride; type: in vivo; conditions: 10 mg/kg, mean plasma, oral gavage, male Sprague Dawley rats
Experimental: Lurasidone salts mean plasma PK parameters were quantified with an API 3200 LC-MS/MS system and illustrated in Table 1.
Male Sprague Dawley rats aged 6-8 weeks and weighing 180-220 g will be used for experiment. Animals will be acclimatized for a minimum period of 5 days. Overnight fasted animals were administered the test substance by oral gavage with a dose equivalent dose of 10 mg/kg of the parent compound with ready to use formulation provided and at a dose volume of 10.06 & 9.6 mL/kg b.w. With mild inhalation anesthesia (Isoflurane), blood samples (200-250 μL) were collected by retro-orbital route at specified time points. Lurasidone hydrochloride and dihydrochloride samples were administered by oral route at a dose volume of 10.06 & 9.6 mL/kg body weight respectively. The actual dosage volume for each animal were calculated based on the fasted body weight. All the animals were administered a single dose on the day of experiment. Blood samples were collected in pre-labeled centrifuge tubes containing anticoagulant (K2EDTA). Blood sampling time points for both the groups were as follows Group 1 & 2—Subgroup 1 (n=5)—0.08, 0.16, 0.33, 0.5, 0.67, 0.83, 1.00 & Subgroup 2 (n=5)—1.5, 2, 3, 6, 12, 18, 24 h. All the animals were administered a single dose on the day of experiment. Blood samples were centrifuged at 4000 rpm at 4° C. for 10 minutes and the corresponding plasma samples were harvested into pre-labeled tubes. Plasma samples will be stored at −80° C. until analysis. The blood samples were centrifuged at 4000 rpm for 10 minutes at 4° C. and the corresponding plasma samples were transferred to clean pre-labeled tubes and stored at −80° C. until analysis.

[3] = Stability by storage under accelerated stability testing conditions; type: physicochemical; conditions: storage at 40° C., 75% RH and 50° C., 90% RH
[4] = Solubility assayed in water; type: physicochemical; conditions: water and mixtures of water with water-miscible solvents; qualitative
Experimental: In particular, the solubility of the compounds of the present invention in comparison with hydrochloride was assayed in water and recorded.

[5] = Comparative solubility study in McIlvaine Buffer pH 3.8; type: physicochemical; remark: listed apart in the source
[6] = in vivo; cited from earlier work
[7] = cited from earlier work
[8] = male, Sprague Dawley, rat, plasma, po
[9] = listed as Monohydrochloride, hydrochloride

- Solubility (mg/ml) Avg. ([1]; average of sample 1 and 2, dihydrochloride dihydrate): 0.6472 mg/mL and 0.9020 mg/mL
- Solubility (mg/ml) Sample 1 ([1]; sample 1, dihydrochloride dihydrate): 0.7220 mg/mL and 0.9548 mg/mL
- Solubility (mg/ml) Sample 2 ([1]; sample 2, dihydrochloride dihydrate): 0.5724 mg/mL and 0.8498 mg/mL
- AUC(0-inf) [2, 8]: 577 ng·h/mL
- AUC(0-t) [2, 8]: 570 ng·h/mL
- Cmax ([2]; male, Sprague Dawley, rat, plasma, po, read-out: Cmax): 659 ng/mL
- AUCextrap ([2]; dihydrochloride dihydrate): 1.29%
- MRTlast ([2]; dihydrochloride dihydrate): 1.05 h
- T1/2 ([2]; dihydrochloride dihydrate): 1.07 h
- stability profile [3]: excellent stability profile
- solubility in water [4]: excellent solubility
Structure (SMILES): O=C1[C@@H]2[C@H]3CC[C@H](C3)[C@@H]2C(=O)N1C[C@@H]1CCCC[C@H]1CN1CCN(c2nsc3ccccc23)CC1 [Di HCl Salt, (3aR,4S,7R,7aS)-2-{(1R,2R)-2-[4-(1,2-benzisothiazol-3-yl)piperazin-1-ylmethyl]cyclohexylmethyl}hexahydro-4,7-methano-2H-isoindole-1,3-dione dihydrochloride dihydrate]

- MRT last [2, 8]: 0.95 h
- half-life [2, 8]: 1.19 h
- AUCextrap [2, 9]: 1.37%
- AUCinf [2, 9]: 357.32 ng·h/mL
- AUClast [2, 9]: 352.41 ng·h/mL
- Cmax [2, 9]: 412.39 ng/mL
- Tmax ([2]; rat): 0.33 h
- Solubility (mg/ml) Avg. ([5]; average of sample 1 and 2, hydrochloride): 0.2126 mg/mL
- solubility ([5]; listed as Lurasidone hydrochloride): less than 0.212 mg/ml
- solubility ([5]; listed as mono hydrochloride salt): around 0.212 mg/ml
- Solubility (mg/ml) Sample 1 ([5]; sample 1, hydrochloride): 0.2104 mg/mL
- Solubility (mg/ml) Sample 2 ([5]; sample 2, hydrochloride): 0.2148 mg/mL
Structure (SMILES): O=C1[C@@H]2[C@H]3CC[C@H](C3)[C@@H]2C(=O)N1C[C@@H]1CCCC[C@H]1CN1CCN(c2nsc3ccccc23)CC1 [Mono HCl Salt, (3aR,4S,7R,7aS)-2-[((1R,2R)-2-{[4-(1,2-benzisothiazol-3-yl)-piperazin-1-yl]methyl}cyclohexyl)methyl]hexahydro-1H-4,7-methanisoindol-1,3-dione hydrochloride]
- bioavailability [6]: less than 12%
- solubility in 0.1 N HCl ([7]; 0.1 N HCl): practically insoluble
- solubility in water ([7]; water): very slightly soluble
